Experimental data: US20240115656A1, “Treatment of Constipation-Predominant Irritable Bowel Syndrome” (Ironwood Pharmaceuticals, Inc., priority 2010, published 2024)
Positions of bridges follow the written chain, without caps; N, C: chain ends. Residues, ends and D or L forms follow the SMILES beside them.

How the values were obtained:
[1] = system: patients meeting modified Rome II criteria for constipation-predominant irritable bowel syndrome; assay: Trial 1 (LIN-MD-31): randomized, double-blind, placebo-controlled trial with 12-week treatment period and randomized withdrawal period; assay type: in vivo, human
Description: (§1) Linaclotide capsules from Example 4 were administered in two multicenter, randomized, double-blind, placebo-controlled parallel-group trials.
Trial 1 (LIN-MD-31) was conducted on approximately 800 patients meeting modified Rome II criteria for constipation-predominant irritable bowel syndrome. The trial included a two-week pretreatment baseline period, a 12-week treatment period, and a randomized withdrawal period (see FIG. 1A).
(§2) The Pretreatment Period is defined as the 14 to 21 calendar days immediately before starting the trial during which patients provided information related to their daily bowel habits, daily assessment of the symptom severity (such as, e.g., abdominal pain), constipation severity, and use of other medicines, laxatives, suppositories, and/or enemas. Patients who satisfied the necessary criteria were entered into the Treatment Period.
(§3) In both trials, the Treatment Period began with randomization. In Trial 1, treatment lasted for 12 weeks. In Trial 2, treatment lasted for 26 weeks. Patients were randomized to approximately equal-sized treatment groups consisting of 266 μg linaclotide or a placebo, taken once daily in the morning 30 minutes before breakfast. Patients continued to provide daily assessments such as their daily bowel habit assessments and daily patient symptom severity assessments.
(§4) In both trials, daily assessment data for patients in both treatment groups were compiled to give the following primary, co-primary and secondary treatment efficacy endpoints, which have been defined by United States and European regulatory agencies for the study of the efficacy of IBS-C.
(§5) A patient was classified as a 9/12 Week APC 3+1 Responder if they were a weekly APC 3+1 Responder for ≥9 out of the 12 (i.e., 9/12) weeks of the study.
(§6) A patient was classified as a 9/12 Week CSBM 3+1 Responder if they were a weekly CSBM 3+1 Responder for ≥9/12 weeks.
(§7) A patient was classified as a 9/12 Week Abdominal Pain Responder if they were a weekly Abdominal Pain Responder for ≥9/12 weeks.
(§8) A patient was classified as a 6/12 Week APC+1 Responder if they were a weekly APC+1 Responder for ≥6 out of the 12 (i.e., 6/12) weeks of the study.
(§9) Also compiled from the patient daily data were the following secondary efficacy endpoints: • Change From Baseline (i.e., change from pre-treatment period) in CSBM Frequency Rate (measured as a weekly rate); • Change From Baseline (“CFB”) in SBM Frequency Rate (weekly rate); • Change From Baseline in Stool Consistency (measured on a 7-point BSFS); • Change From Baseline in Severity of Straining (measured on a 5-point scale); • Change From Baseline in Abdominal Pain (measured on a 11-point numerical rating scale and scored 0-10); • Change From Baseline in Abdominal Discomfort (measured on […] numerical rating scale and scored 0-10); • Change From Baseline in Bloating (measured on a 11-point numerical rating scale and scored 0-10); • 6/12 Week CSBM+1 Responder; • 6/12 Week Abdominal Pain Responder; and • Change From Baseline in Percent of Abdominal Pain-free Days (Pain-free is a score of 0 on the 0-10 point scale).
Patients who were randomized to linaclotide in the Treatment Period and completed the 12 weeks of the Treatment Period, the RW Population, were randomized to treatment with linaclotide or placebo in the RW Period as follows: half of the RW Population received placebo for the first half of the RW Period followed by administration of 266 μg linaclotide; one quarter of the RW Population received 266 μg linaclotide for the entire RW Period and the remaining one quarter of the RW Population received 266 μg linaclotide for the first half of the RW Period and placebo for the remainder of the RW Period. Patients that were randomized to placebo in the Treatment Period and completed the 12 weeks of the Treatment Period received 266 μg linaclotide in the RW Period.

[2] = system: patients meeting modified Rome II criteria for constipation-predominant irritable bowel syndrome; assay: Trial 2 (MCP-103-302): randomized, double-blind, placebo-controlled trial with 26-week treatment period; assay type: in vivo, human
Description: as §1
Trial 2 (MCP-103-302) was conducted on approximately 805 patients meeting modified Rome II criteria for constipation-predominant irritable bowel syndrome (<3 CSBM/wk, ≤5 SBM/wk, abdominal pain≥3 on a 0-10 scale.) As in Trial 1, the trial included a two-week pretreatment baseline period; however, the treatment period was continued for 26 weeks rather than 12 weeks as in Trial 1, and no randomized withdrawal period was performed (see FIG. 1B).
as §2, §3, §4, §5, §6, §7, §8
In Trial 2, the above co-primary efficacy parameters, 12-week Abdominal Pain/Abdominal Discomfort Responder and 12-week IBS Degree of Relief Responder, were also computed for the full 26 week treatment period.
as §9

[3] = Systemic levels of linaclotide after oral administration; assay type: in vivo; conditions: after oral administration at therapeutic dose levels
[4] = system: chronic constipation (CC); conditions: Phase 2b studies for CC; four-week treatment period; cited from earlier work
[5] = 266 μg linaclotide group, once daily, 12 weeks
[6] = 266 μg linaclotide group, once daily
[7] = 266 μg linaclotide group, once daily, first 12 weeks
[8] = 26-week treatment period, linaclotide-treated patients
[9] = after 12 weeks, linaclotide-treated patients
[10] = main secondary efficacy endpoint, full 26 week treatment period
[11] = throughout the 26-week treatment period, linaclotide-treated patients

For `C[C@@H]1NC(=O)[C@@H]2CCCN2C(=O)[C@H](CC(N)=O)NC(=O)[C@@H]2CSSC[C@H](N)C(=O)N[C@H]3CSSC[C@H](NC1=O)C(=O)N[C@@H]([C@@H](C)O)C(=O)NCC(=O)N[C@H](C(=O)N[C@@H](Cc1ccc(O)cc1)C(=O)O)CSSC[C@H](NC(=O)[C@H](Cc1ccc(O)cc1)NC(=O)[C@H](CCC(=O)O)NC3=O)C(=O)N2` [linaclotide, Cys1 Cys2 Glu3 Tyr4 Cys5 Cys6 Asn7 Pro8 Ala9 Cys10 Thr11 Gly12 Cys13 Tyr14] (H-CCEYCCNPACTGCY-OH; disulfide 1-6, 2-10, 5-13), the “6/12-week APC+1 pain responder rate” value [1, 5] was 33.6%, the “6/12-week abdominal pain responder rate” value [1, 5] was 50.1% and the “6/12 week CSBM+1 responder rate” value [1, 5] was 48.6%. The “9/12-week APC 3+1 responder rate” value [1, 5] was 12.1%, the “9/12-week CSBM 3+1 responder rate” value [1, 5] was 19.5% and the “9/12-week abdominal pain responder rate” value [1, 5] was 34.3%. For the same compound, the “12-week Abdominal Pain/Abdominal Discomfort Responder” value [1, 5] was 54.8%, the “12-week IBS Degree of Relief Responder” value [1, 5] was 37.0% and the “rebound of IBS-C symptoms following discontinuation of linaclotide treatment” value ([1]; Randomized Withdrawal Period) was “no evidence of rebound of IBS-C symptoms”. For the same compound, the “12-week Abdominal Pain/Abdominal Discomfort Responder: Statistical Significance (266 μg vs. Placebo)” value ([1]; co-primary efficacy parameter) was “Yes”, the “12-week IBS Degree of Relief Responder: Statistical Significance (266 μg vs. Placebo)” value ([1]; co-primary efficacy parameter) was “Yes” and the “adverse event: diarrhea with mild symptoms” value ([1]; linaclotide group) was 9%. The “adverse event: diarrhea with moderate symptoms” value ([1]; linaclotide group) was 8%, the “adverse event: diarrhea with severe symptoms” value ([1]; linaclotide group) was 2% and the “overall rate of discontinuation due to adverse events” value (from here on “overall rate of discontinuation due”) ([1]; linaclotide group) was 8%. For the same compound, the “patients reporting at least a 10% improvement in abdominal symptoms over 12 weeks” value ([1]; linaclotide treatment, FIG. 10) was “under 80%”, the “adverse event: abdominal pain” value ([1]; linaclotide-treated patients) was 5% and the “adverse event: diarrhea” value ([1]; linaclotide-treated patients) was 19%. For the same compound, the “adverse event: flatulence” value ([1]; linaclotide-treated patients) was 5%, the “adverse event: headache” value ([1]; linaclotide-treated patients) was 5% and the “more CSBMs per week than with the placebo alone” value ([1]; on average, 12 weeks, FIG. 12C) was “about 1.5 CSBMs per week”. The “time until abdominal pain was reduced over the pre-treatment baseline” value ([1]; on average, sustained throughout the treatment period) was 1 to 3 days, the “6/12 Week APC + 1 Responder: Statistical Significance (266 μg vs. Placebo)” value ([1]; primary efficacy endpoint) was “Yes” and the “9/12 Week APC 3 + 1 Responder: Statistical Significance (266 μg vs. Placebo)” value ([1]; primary efficacy endpoint) was “Yes”. For the same compound, the “9/12 Week Abdominal Pain Responder: Statistical Significance (266 μg vs. Placebo)” value ([1]; primary efficacy endpoint) was “Yes”, the “9/12 Week CSBM 3 + 1 Responder: Statistical Significance (266 μg vs. Placebo)” value ([1]; primary efficacy endpoint) was “Yes” and the “6/12 Week Abdominal Pain Responder: Statistical Significance (266 μg vs. Placebo)” value ([1]; secondary efficacy endpoint) was “Yes”. The “6/12 Week CSBM + 1 Responder: Statistical Significance (266 μg vs. Placebo)” value ([1]; secondary efficacy endpoint) was “Yes”, the “12-Week Abdominal Discomfort (CFB): Statistical Significance (266 μg vs. Placebo)” value ([1]; secondary efficacy endpoint) was “Yes” and the “12-Week Abdominal Pain (CFB): Statistical Significance (266 μg vs. Placebo)” value ([1]; secondary efficacy endpoint) was “Yes”. The “12-Week Bloating (CFB): Statistical Significance (266 μg vs. Placebo)” value ([1]; secondary efficacy endpoint) was “Yes”, the “12-Week CSBM Frequency Rate(CFB): Statistical Significance (266 μg vs. Placebo)” value ([1]; secondary efficacy endpoint) was “Yes” and the “12-Week Percent of Abdominal Pain-free Days (CFB): Statistical Significance (266 μg vs. Placebo)” value ([1]; secondary efficacy endpoint) was “Yes”. For the same compound, the “12-Week SBM Frequency Rate (CFB): Statistical Significance (266 μg vs. Placebo)” value ([1]; secondary efficacy endpoint) was “Yes”, the “12-Week Severity of Straining (CFB): Statistical Significance (266 μg vs. Placebo)” value ([1]; secondary efficacy endpoint) was “Yes” and the “12-Week Stool Consistency (CFB): Statistical Significance (266 μg vs. Placebo)” value ([1]; secondary efficacy endpoint) was “Yes”. The “12-week Abdominal Pain/Abdominal Discomfort Responder” value [2, 6] was 54.1%, the “12-week IBS Degree of Relief Responder” value [2, 6] was 39.4% and the “6/12-week APC+1 pain responder rate” value [2, 7] was 33.7%. The “9/12-week APC 3+1 responder rate” value [2, 7] was 12.7%, the “9/12-week CSBM 3+1 responder rate” value [2, 7] was 18.0% and the “9/12-week abdominal pain responder rate” value [2, 7] was 38.9%. For the same compound, the “overall rate of discontinuation due” value [2, 8] was 10.2%, the “patients discontinued due to diarrhea” value [2, 8] was 4.5% and the “overall rate of discontinuation due” value ([2]; after 12 weeks, linaclotide group) was 9%. The “adverse event: abdominal pain” value [2, 9] was 4%, the “adverse event: diarrhea” value [2, 9] was 18% and the “adverse event: flatulence” value [2, 9] was 3%. For the same compound, the “adverse event: headache” value [2, 9] was 3%, the “12-week Abdominal Pain/Abdominal Discomfort Responder: Statistical Significance (266 μg vs. Placebo)” value ([2]; co-primary efficacy parameter) was “Yes” and the “12-week IBS Degree of Relief Responder: Statistical Significance (266 μg vs. Placebo)” value ([2]; co-primary efficacy parameter) was “Yes”. The “26-week Abdominal Pain/Abdominal Discomfort Responder: Statistical Significance (266 μg vs. Placebo)” value [2, 10] was “Yes”, the “26-week IBS Degree of Relief Responder: Statistical Significance (266 μg vs. Placebo)” value [2, 10] was “Yes” and the “CSBMs per week compared with placebo” value ([2]; on average, 12 weeks after treatment, FIG. 12C) was “more CSBMs per week than with the placebo alone”. For the same compound, the “time until abdominal pain was reduced over the pre-treatment baseline” value ([2]; on average, sustained throughout the 26 week treatment period) was 1 to 3 days, the “6/12 Week APC + 1 Responder: Statistical Significance (266 μg vs. Placebo)” value ([2]; primary efficacy endpoint) was “Yes” and the “9/12 Week APC 3 + 1 Responder: Statistical Significance (266 μg vs. Placebo)” value ([2]; primary efficacy endpoint) was “Yes”. The “9/12 Week Abdominal Pain Responder: Statistical Significance (266 μg vs. Placebo)” value ([2]; primary efficacy endpoint) was “Yes”, the “9/12 Week CSBM 3 + 1 Responder: Statistical Significance (266 μg vs. Placebo)” value ([2]; primary efficacy endpoint) was “Yes” and the “6/12 Week Abdominal Pain Responder: Statistical Significance (266 μg vs. Placebo)” value ([2]; secondary efficacy endpoint) was “Yes”. For the same compound, the “6/12 Week CSBM + 1 Responder: Statistical Significance (266 μg vs. Placebo)” value ([2]; secondary efficacy endpoint) was “Yes”, the “12-Week Abdominal Discomfort (CFB): Statistical Significance (266 μg vs. Placebo)” value ([2]; secondary efficacy endpoint) was “Yes” and the “12-Week Abdominal Pain (CFB): Statistical Significance (266 μg vs. Placebo)” value ([2]; secondary efficacy endpoint) was “Yes”. The “12-Week Bloating (CFB): Statistical Significance (266 μg vs. Placebo)” value ([2]; secondary efficacy endpoint) was “Yes”, the “12-Week CSBM Frequency Rate(CFB): Statistical Significance (266 μg vs. Placebo)” value ([2]; secondary efficacy endpoint) was “Yes” and the “12-Week Percent of Abdominal Pain-free Days (CFB): Statistical Significance (266 μg vs. Placebo)” value ([2]; secondary efficacy endpoint) was “Yes”. For the same compound, the “12-Week SBM Frequency Rate (CFB): Statistical Significance (266 μg vs. Placebo)” value ([2]; secondary efficacy endpoint) was “Yes”, the “12-Week Severity of Straining (CFB): Statistical Significance (266 μg vs. Placebo)” value ([2]; secondary efficacy endpoint) was “Yes” and the “12-Week Stool Consistency (CFB): Statistical Significance (266 μg vs. Placebo)” value ([2]; secondary efficacy endpoint) was “Yes”. The “adverse event: abdominal pain” value [2, 11] was 4.5%, the “adverse event: diarrhea” value [2, 11] was 19.7% and the “adverse event: flatulence” value [2, 11] was 3.7%. For the same compound, the “adverse event: headache” value [2, 11] was 3.2%, the “adverse event: viral gastroenteritis” value [2, 11] was 3.7% and the “levels of linaclotide seen systemically” value [3] was “no detectable levels”. The “effect on constipation, abdominal discomfort and bloating” value [4] was “reduced constipation, abdominal discomfort, and bloating”.
